Reference: PubChem BioAssay AID2060610 (Molecular Pharmacology Branch, DTP, NCI, 2025)

System: 616215-338-R-J1-PDC complex spheroids, viability % test/control
Experiment: Anticancer human tumor 616215-338-R-J1-PDC patient-derived colon adenocarcinoma cell line growth inhibition [CLK]
Conditions: for IC50: curve of first compound; for viability, T/C: stronger effect = lower value
In short: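 Patient-derived tumor cells grown as complex spheroids with HUVEC endothelial cells and mesenchymal stem cells, treated with drug combinations. Concentrations descend in half-log steps from near clinical Cmax, or from 10 microM if Cmax unknown.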
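Note: spheroids exposed to agents for 7 days.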
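Throughout, for viability, T/C: 100% = DMSO vehicle wells.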

`Nc1ccccc1NC(=O)c1ccc(CNC(=O)OCc2cccnc2)cc1` + CN1CCN(c2cc(C(=O)Nc3cc4cc(-c5cnn(C)c5)ccc4cn3)ccn2)CC1 showed an IC50 (second compound 0.0316 µM) of 4240 nM, an IC50 (second compound 0.1 µM) of 2540 nM and an IC50 (second compound 0.316 µM) of less than 31.6 nM. It also gave an IC50 (second compound 1 µM) of less than 31.6 nM, an IC50 (second compound 3.16 µM) of less than 31.6 nM and an IC50 (second compound 10 µM) of less than 31.6 nM. For the same compound, the viability, T/C (second compound 0.0316 µM, first compound 0.0316 µM) was 95%, the viability, T/C (second compound 0.0316 µM, first compound 0.1 µM) was 95.3% and the viability, T/C (second compound 0.0316 µM, first compound 0.316 µM) was 110%. It also gave a viability, T/C (second compound 0.0316 µM, first compound 1 µM) of 118%, a viability, T/C (second compound 0.0316 µM, first compound 3.16 µM) of 62.7% and a viability, T/C (second compound 0.0316 µM, first compound 10 µM) of 12.6%. For the same compound, the viability, T/C (second compound 0.1 µM, first compound 0.0316 µM) was 110%, the viability, T/C (second compound 0.1 µM, first compound 0.1 µM) was 123% and the viability, T/C (second compound 0.1 µM, first compound 0.316 µM) was 118%. The viability, T/C (second compound 0.1 µM, first compound 1 µM) was 119%, the viability, T/C (second compound 0.1 µM, first compound 3.16 µM) was 34.1% and the viability, T/C (second compound 0.1 µM, first compound 10 µM) was 8.04%. For the same compound, the viability, T/C (second compound 0.316 µM, first compound 0.0316 µM) was 26.6%, the viability, T/C (second compound 0.316 µM, first compound 0.1 µM) was 31.3% and the viability, T/C (second compound 0.316 µM, first compound 0.316 µM) was 20.9%. The viability, T/C (second compound 0.316 µM, first compound 1 µM) was 18.9%, the viability, T/C (second compound 0.316 µM, first compound 3.16 µM) was 3.92% and the viability, T/C (second compound 0.316 µM, first compound 10 µM) was 2.67%. The viability, T/C (second compound 1 µM, first compound 0.0316 µM) was 0.16%, the viability, T/C (second compound 1 µM, first compound 0.1 µM) was 0.17% and the viability, T/C (second compound 1 µM, first compound 0.316 µM) was 2.95%. For the same compound, the viability, T/C (second compound 1 µM, first compound 1 µM) was 0.09%, the viability, T/C (second compound 1 µM, first compound 3.16 µM) was 3.76% and the viability, T/C (second compound 1 µM, first compound 10 µM) was 3.49%. It also gave a viability, T/C (second compound 3.16 µM, first compound 0.0316 µM) of 0.1%, a viability, T/C (second compound 3.16 µM, first compound 0.1 µM) of 0.71% and a viability, T/C (second compound 3.16 µM, first compound 0.316 µM) of 0.63%. For the same compound, the viability, T/C (second compound 3.16 µM, first compound 1 µM) was 0.09%, the viability, T/C (second compound 3.16 µM, first compound 3.16 µM) was 1.87% and the viability, T/C (second compound 3.16 µM, first compound 10 µM) was 1.46%. It also gave a viability, T/C (second compound 10 µM, first compound 0.0316 µM) of 0.08%, a viability, T/C (second compound 10 µM, first compound 0.1 µM) of 0.52% and a viability, T/C (second compound 10 µM, first compound 0.316 µM) of 3.6%. The viability, T/C (second compound 10 µM, first compound 1 µM) was 0.17%, the viability, T/C (second compound 10 µM, first compound 3.16 µM) was 0.18% and the viability, T/C (second compound 10 µM, first compound 10 µM) was 2.22%.
`C=CC(=O)Nc1cc(Nc2nccc(-c3cn(C)c4ccccc34)n2)c(OC)cc1N(C)CCN(C)C` + CNC(=O)c1ccc(Nc2nc(OC3CCCC3)c3c(-c4ccc5nc(C)oc5c4)c[nH]c3n2)c(OC)c1 was tested, and the IC50 (second compound 0.0316 µM) was greater than 300 nM, the IC50 (second compound 0.1 µM) was 2.07 nM and the IC50 (second compound 0.316 µM) was less than 0.949 nM. It also gave an IC50 (second compound 1 µM) of less than 0.949 nM, an IC50 (second compound 3.16 µM) of less than 0.949 nM and an IC50 (second compound 10 µM) of less than 0.949 nM. For the same compound, the viability, T/C (second compound 0.0316 µM, first compound 0.000949 µM) was 94.3%, the viability, T/C (second compound 0.0316 µM, first compound 0.003 µM) was 87.8% and the viability, T/C (second compound 0.0316 µM, first compound 0.00949 µM) was 90.3%. The viability, T/C (second compound 0.0316 µM, first compound 0.03 µM) was 89.4%, the viability, T/C (second compound 0.0316 µM, first compound 0.0949 µM) was 98.7% and the viability, T/C (second compound 0.0316 µM, first compound 0.3 µM) was 95.8%. For the same compound, the viability, T/C (second compound 0.1 µM, first compound 0.000949 µM) was 52.1%, the viability, T/C (second compound 0.1 µM, first compound 0.003 µM) was 51.2% and the viability, T/C (second compound 0.1 µM, first compound 0.00949 µM) was 42.3%. For the same compound, the viability, T/C (second compound 0.1 µM, first compound 0.03 µM) was 36.6%, the viability, T/C (second compound 0.1 µM, first compound 0.0949 µM) was 40.9% and the viability, T/C (second compound 0.1 µM, first compound 0.3 µM) was 28.5%. For the same compound, the viability, T/C (second compound 0.316 µM, first compound 0.000949 µM) was 43.9%, the viability, T/C (second compound 0.316 µM, first compound 0.003 µM) was 37.9% and the viability, T/C (second compound 0.316 µM, first compound 0.00949 µM) was 39.2%. The viability, T/C (second compound 0.316 µM, first compound 0.03 µM) was 36.7%, the viability, T/C (second compound 0.316 µM, first compound 0.0949 µM) was 31.6% and the viability, T/C (second compound 0.316 µM, first compound 0.3 µM) was 25.8%. It also gave a viability, T/C (second compound 1 µM, first compound 0.000949 µM) of 43.6%, a viability, T/C (second compound 1 µM, first compound 0.003 µM) of 41.9% and a viability, T/C (second compound 1 µM, first compound 0.00949 µM) of 39.7%. It also gave a viability, T/C (second compound 1 µM, first compound 0.03 µM) of 39%, a viability, T/C (second compound 1 µM, first compound 0.0949 µM) of 31.8% and a viability, T/C (second compound 1 µM, first compound 0.3 µM) of 24.4%. The viability, T/C (second compound 3.16 µM, first compound 0.000949 µM) was 39.3%, the viability, T/C (second compound 3.16 µM, first compound 0.003 µM) was 42.8% and the viability, T/C (second compound 3.16 µM, first compound 0.00949 µM) was 41%. The viability, T/C (second compound 3.16 µM, first compound 0.03 µM) was 34.3%, the viability, T/C (second compound 3.16 µM, first compound 0.0949 µM) was 28% and the viability, T/C (second compound 3.16 µM, first compound 0.3 µM) was 20.1%. It also gave a viability, T/C (second compound 10 µM, first compound 0.000949 µM) of 40.1%, a viability, T/C (second compound 10 µM, first compound 0.003 µM) of 40.7% and a viability, T/C (second compound 10 µM, first compound 0.00949 µM) of 33.8%. It also gave a viability, T/C (second compound 10 µM, first compound 0.03 µM) of 28.8%, a viability, T/C (second compound 10 µM, first compound 0.0949 µM) of 25.8% and a viability, T/C (second compound 10 µM, first compound 0.3 µM) of 22.7%.
